In paper PMC11013143, “4-Chloroisocoumarins as Chlamydial Protease Inhibitors and Anti-Chlamydial Agents” (Molecules, 2024):
Converted amounts (≈) assume the structure as drawn.

Columns and labels:
C. trachomatis = test: Chlamydia trachomatis growth inhibition assay in HEp-2 host cells; assay type: cell-based; settings: for statistical significance of anti-chlamydial activity: relative to solvent controls
Description: The workflow for the evaluation of chlamydial growth inhibition is described in the supplementary information (Figure S6). Briefly, HEp-2 cells were seeded in a 96-well plate and grown for 24 h; they were then infected with a fixed quantity of C. trachomatis. The infection was propagated for 4 h, and then a mixture of test compound and cycloheximide was added and the plate was incubated for a further 26 h (30 h post infection). The cells were fixed with methanol and then stained with fluorescent antibodies to visualize chlamydial inclusions, and the growth was measured using inclusion counts relative to vehicle controls.
HEp-2 cells were grown until confluent in a T-75 flask with DMEM (containing 10% FCS, gentamycin (0.05 mg/mL), streptomycin (0.1 mg/mL) and glutamine (Sigma-Aldrich Cat No. G7513, 4 mM); they were then harvested with trypsin, and the cell density was determined with a haemocytometer. Cells were diluted to 1 × 10^5 cells/mL, and 200 µL was dispensed to each well in a 96-well plate and then incubated for 24 h at 5% CO2 at 37 °C.
The supernatant was removed, and 100 µL of the respective chlamydia species in media (100,000 IFU/mL) was added, giving an MOI of 0.5. The plate was sealed and centrifuged at 500× g/28 °C for 30 min and then incubated for a further 3.5 h at 37 °C with 5% CO2. The supernatant was removed, and 100 µL of cycloheximide in DMEM (1 µg/mL) was added in addition to 100 µL of drug stock solution to each respective well with DMSO and media negative controls and also azithromycin positive control. The plate was incubated for a further 26 h.
The supernatant was removed, and wells were washed with PBS (2 × 150 µL) and then fixed in methanol for eight minutes. The methanol was removed and washed with additional PBS (2 × 150 µL) and stored at 4 °C with 100 µL PBS per well and then stained and analyzed using fluorescence microscopy, which is outlined below.
Cells in fixed plates were permeabilized with 0.5% Triton X-100 in PBS for 15 min and then blocked with 1% BSA in PBS for 45 min. Anti-HtrA polyclonal antibody (sera) (1:600) (in-house), anti-mouse tubulin (Sigma-Aldrich Cat no. T-5168, 1:3000) and DAPI (125 ng/mL) in PBS were added to each well (70 µL) and then gently shaken at room temperature while shielding it from light for 45 min. The primary antibodies were removed, and the wells were washed with PBS (4 × 150 µL). Secondary antibodies (goat anti-rabbit Alexafluor 488, Thermo Fisher Cat No. A-11008 and goat anti-mouse Alexafluor 568 (Thermo Fisher Cat No. A-11004)) in PBS (70 µL, 1:600 respectively) were added and the wells were gently shaken at room temperature while shielding them from light for 45 min. The antibodies were removed, and the wells were washed with PBS (5 × 150 µL); cells were then stored with PBS (100 µL per well) at 4 °C pending analysis.
Plates were analyzed on an INcell Analyzer 2200 (Cytiva Life Sciences, Marlborough, MA, USA) using both laser autofocus (10%) and software autofocus modes, with ten random images per well covering a minimum of 80% of the well at 10x magnification. Non-morphologically affected inclusions were counted using a macro in ImageJ (v1.54f), and MIC was defined as being one two-fold dilution more concentrated than MICTP (where MICTP is defined as the lowest concentration to produce ≥90% morphologically abnormal inclusions) relative to solvent controls.

[1] = biological target: T1, Human Leukocyte Elastase (HLE) (Homo sapiens, UniProt P08246); test: HLE protease inhibition assay; assay type: biochemical
T1 construct: purchased Athens Research and Technology 16-15-051200
T1 sequence (P08246 30-247 limits assumed): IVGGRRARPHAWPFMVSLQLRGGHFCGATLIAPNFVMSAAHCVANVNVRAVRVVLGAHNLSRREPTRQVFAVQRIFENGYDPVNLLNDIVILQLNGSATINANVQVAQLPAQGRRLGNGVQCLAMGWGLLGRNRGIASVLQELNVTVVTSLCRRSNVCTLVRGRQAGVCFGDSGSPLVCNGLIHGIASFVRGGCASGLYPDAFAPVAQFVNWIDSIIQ
Description: Elastase was purchased from Athens Research and Technology (Cat No. 16-15-051200). Elastase (100 µg) was dissolved in Tris buffer (100 mM Tris, 20 mM CaCl2, pH 8.1, 3.14 mL), giving a concentration of 1.117 µM, and 25 µL was added to each well containing the respective inhibitor. The plate was incubated at 37 °C for 15 min.
N-Suc-AAA-pNA (Sigma Aldrich, Bayswater, Australia, S4760, 100 µL, 1 mg/mL, […]) was added to each well, and the absorbance was monitored every six minutes at 405 nm. The rate of change of absorbance was used as a comparison to controls to determine the % inhibition of protein in Microsoft Excel^TM (v2402), and these values were exported to GraphPad Prism (v8.0.1) for IC50 calculation.

[2] = 62.5 µM, 30 h post infection, HEp-2 host cells

CCC(C)Oc1oc(=O)c2ccccc2c1Cl (racemic) [Compound 2g, (±)-3-sec-Butoxy-4-chloroisocoumarin]
reduction of chlamydial growth (C. trachomatis; [2]): 49%
IC50 ([1]; Table S1, variable slope four parameter fit, read-out: IC50 against HLE): 1.81 µM
Relative Potency against HLE ([1]; [IC50 of JO146]/[IC50 test compound]): 0.451

CCC(C)Oc1oc(=O)c2cc(N)ccc2c1Cl (racemic) [Compound 6a, (±)-7-Amino-4-chloro-3-sec-butoxyisocoumarin]
chlamydial inclusions affected (C. trachomatis; [2]): ≥ 90%
statistical significance of anti-chlamydial activity (C. trachomatis; 62.5 µM): statistically significant anti-chlamydial activity
inhibition of C. trachomatis growth versus 90% threshold (C. trachomatis; any concentration tested, 30 h post infection, dose-response): did not consistently show inhibition greater than the 90% threshold

CCC(C)Oc1oc(=O)c2cc(N(C)C)ccc2c1Cl (racemic) [Compound 6b, (±)-7-(Dimethylamino)-3-sec-butoxy-4-chloroisocoumarin]
chlamydial inclusions affected (C. trachomatis; [2]): ≥ 90%
statistical significance of anti-chlamydial activity (C. trachomatis; 62.5 µM): statistically significant anti-chlamydial activity
inhibition at 31.25 µM (C. trachomatis; Chlamydia trachomatis, HEp-2, concentrations ≥ 31.25 µM, 30 h post infection, dose-response): > 90%
MIC (C. trachomatis; Chlamydia trachomatis, MIC defined as twice the MICTP (>90% altered chlamydial morphology), read-out: MIC (minimum inhibitory concentration) against C. trachomatis): 62.5 µM (≈ 18.5 µg/mL)

CCC(C)Oc1oc(=O)c2cc(NC(C)=O)ccc2c1Cl (racemic) [Compound 6c, (±)-N-(4-Chloro-1-oxo-3-sec-butoxy-isochromen-7-yl)acetamide]
anti-chlamydial activity against C. trachomatis (C. trachomatis; [2]): did not significantly affect the efficacy of 2g

CCC(C)Oc1oc(=O)c2cc(NC(=O)C(F)(F)F)ccc2c1Cl (racemic) [Compound 6d, (±)-N-(4-chloro-1-oxo-3-sec-butoxy-isochromen-7-yl)-2,2,2-trifluoroacetamide]
melting point: 189 to 190 °C
anti-chlamydial activity against C. trachomatis (C. trachomatis; [2]): comparable efficacy to the methoxy (6h) analogue
statistical significance of anti-chlamydial activity (C. trachomatis; 62.5 µM): statistically significant anti-chlamydial activity

CCC(C)Oc1oc(=O)c2cc(I)ccc2c1Cl (racemic) [Compound 6e, (±)-3-sec-Butoxy-4-chloro-7-iodoisocoumarin]
anti-chlamydial activity against C. trachomatis (C. trachomatis; [2]): did not significantly affect the efficacy of 2g
statistical significance of anti-chlamydial activity (C. trachomatis; 62.5 µM): statistically significant anti-chlamydial activity

CCC(C)Oc1oc(=O)c2cc(OC)ccc2c1Cl (racemic) [Compound 6h, (±)-7-Methoxy-3-sec-butoxy-4-chloroisocoumarin]
statistical significance of anti-chlamydial activity (C. trachomatis; 62.5 µM): statistically significant anti-chlamydial activity
